Laboratory results from the CheMixHub viscosity set.
± gives the uncertainty stated by the source.

Experiment: xn = mol fraction of the nth substance listed

O=S1(=O)CCCC1 + O gave a viscosity (293.15 K, 101 kPa, x1 = 0.02074) of 1.163 ± 0.011 mPa·s, a viscosity (293.15 K, 101 kPa, x1 = 0.04649) of 1.387 ± 0.015 mPa·s and a viscosity (293.15 K, 101 kPa, x1 = 0.07703) of 1.634 ± 0.021 mPa·s. For the same compound, the viscosity (293.15 K, 101 kPa, x1 = 0.1147) was 1.969 ± 0.029 mPa·s, the viscosity (293.15 K, 101 kPa, x1 = 0.1615) was 2.405 ± 0.041 mPa·s and the viscosity (293.15 K, 101 kPa, x1 = 0.2247) was 3.044 ± 0.057 mPa·s. The viscosity (293.15 K, 101 kPa, x1 = 0.3102) was 3.813 ± 0.079 mPa·s, the viscosity (293.15 K, 101 kPa, x1 = 0.4328) was 4.899 ± 0.11 mPa·s and the viscosity (293.15 K, 101 kPa, x1 = 0.6323) was 6.59 ± 0.16 mPa·s. The viscosity (293.15 K, 101 kPa, x1 = 0.7807) was 8.243 ± 0.2 mPa·s, the viscosity (298 K, 100 kPa, x1 = 0.0215) was 1 ± 0.1 mPa·s and the viscosity (298 K, 100 kPa, x1 = 0.035) was 1.11 ± 0.11 mPa·s. For the same compound, the viscosity (298 K, 100 kPa, x1 = 0.0679) was 1.32 ± 0.13 mPa·s, the viscosity (298 K, 100 kPa, x1 = 0.0888) was 1.51 ± 0.15 mPa·s and the viscosity (298 K, 100 kPa, x1 = 0.121) was 1.74 ± 0.18 mPa·s. The viscosity (298 K, 100 kPa, x1 = 0.221) was 2.52 ± 0.26 mPa·s, the viscosity (298 K, 100 kPa, x1 = 0.569) was 5.19 ± 0.53 mPa·s and the viscosity (298.15 K, 101 kPa, x1 = 0.02074) was 1.038 ± 0.01 mPa·s. The viscosity (298.15 K, 101 kPa, x1 = 0.02077) was 1.01 ± 0.3 mPa·s, the viscosity (298.15 K, 101 kPa, x1 = 0.04267) was 1.17 ± 0.35 mPa·s and the viscosity (298.15 K, 101 kPa, x1 = 0.04649) was 1.221 ± 0.014 mPa·s. The viscosity (298.15 K, 101 kPa, x1 = 0.07103) was 1.59 ± 0.48 mPa·s, the viscosity (298.15 K, 101 kPa, x1 = 0.07703) was 1.458 ± 0.019 mPa·s and the viscosity (298.15 K, 101 kPa, x1 = 0.09929) was 1.64 ± 0.49 mPa·s. For the same compound, the viscosity (298.15 K, 101 kPa, x1 = 0.1147) was 1.735 ± 0.026 mPa·s, the viscosity (298.15 K, 101 kPa, x1 = 0.1615) was 2.129 ± 0.036 mPa·s and the viscosity (298.15 K, 101 kPa, x1 = 0.2247) was 2.656 ± 0.05 mPa·s. It also gave a viscosity (298.15 K, 101 kPa, x1 = 0.25) of 2.738 ± 0.038 mPa·s, a viscosity (298.15 K, 101 kPa, x1 = 0.3102) of 3.347 ± 0.069 mPa·s and a viscosity (298.15 K, 101 kPa, x1 = 0.4328) of 4.263 ± 0.096 mPa·s. The viscosity (298.15 K, 101 kPa, x1 = 0.5) was 4.583 ± 0.067 mPa·s, the viscosity (298.15 K, 101 kPa, x1 = 0.6323) was 5.775 ± 0.14 mPa·s and the viscosity (298.15 K, 101 kPa, x1 = 0.75) was 6.772 ± 0.086 mPa·s. The viscosity (298.15 K, 101 kPa, x1 = 0.7807) was 7.049 ± 0.18 mPa·s, the viscosity (298.15 K, 101 kPa, x1 = 0.85) was 7.49 ± 0.089 mPa·s and the viscosity (303.15 K, 101 kPa, x1 = 0.0147) was 0.8884 ± 0.023 mPa·s. The viscosity (303.15 K, 101 kPa, x1 = 0.02074) was 0.927 ± 0.009 mPa·s, the viscosity (303.15 K, 101 kPa, x1 = 0.02077) was 0.91 ± 0.27 mPa·s and the viscosity (303.15 K, 101 kPa, x1 = 0.0208) was 0.9245 ± 0.024 mPa·s. For the same compound, the viscosity (303.15 K, 101 kPa, x1 = 0.04267) was 1.04 ± 0.31 mPa·s, the viscosity (303.15 K, 101 kPa, x1 = 0.04649) was 1.093 ± 0.012 mPa·s and the viscosity (303.15 K, 101 kPa, x1 = 0.0701) was 1.255 ± 0.033 mPa·s. For the same compound, the viscosity (303.15 K, 101 kPa, x1 = 0.07103) was 1.34 ± 0.4 mPa·s, the viscosity (303.15 K, 101 kPa, x1 = 0.0744) was 1.273 ± 0.033 mPa·s and the viscosity (303.15 K, 101 kPa, x1 = 0.0958) was 1.429 ± 0.037 mPa·s. The viscosity (303.15 K, 101 kPa, x1 = 0.09929) was 1.44 ± 0.43 mPa·s, the viscosity (303.15 K, 101 kPa, x1 = 0.1435) was 1.761 ± 0.046 mPa·s and the viscosity (303.15 K, 101 kPa, x1 = 0.1586) was 1.852 ± 0.048 mPa·s. For the same compound, the viscosity (303.15 K, 101 kPa, x1 = 0.1924) was 2.101 ± 0.055 mPa·s and the viscosity (303.15 K, 101 kPa, x1 = 0.25) was 2.287 ± 0.03 mPa·s.
